Columns and labels:
Ube3am-/p+ (AS) mice [1] = experiment: Novel object recognition, mouse model of Angelman syndrome; type: in vivo; conditions: CBDA 20 mg/kg i.p., age 7-8 weeks, vs AS vehicle
Experimental: (§1) Heterozygous mice with maternal deficiency of Ube3A (Ube3am−/p+) and wild type (Ube3am+/p+) were purchased from The Jackson Laboratory (Jackson code: B6.129S7-Ube3a tm1Alb/J) and maintained in a C57BL/6 background.
(§2) Drugs were dissolved in 1:1:18 ethanol:cremophor:0.9% saline, for intraperitoneal (i.p.) administration. Drug treatment was performed daily for 35 days. CBDA was administered at 20 mg/kg.
Novel Object Recognition: The novel object recognition assesses recognition memory in mice. The experiment started with the habituation period, during which mice were allowed to freely explore for 1 hour the apparatus which consists of a rectangular open box (40×30×30 cm width×length×height) made of grey polyvinyl chloride (PVC) illuminated by a dim light. The day after each mouse was allowed to explore two identical objects positioned in the back left and right corners for 5 min (acquisition). A video camera recorded the time spent on exploration of each object. […] The behaviour of mice was analyzed by an observer blind to the treatment. Data are expressed as percentage of recognition index (RI %), which was calculated as the percentage of the time spent exploring the novel object/time spent exploring the novel object+time spent exploring the familiar object×100.

VPA-exposed offspring = experiment: Locomotor activity and repetitive behaviours (self-grooming) in activity cage, rat VPA model; type: in vivo, Sprague-Dawley rats; conditions: CBDA 20 mg/kg/day i.p. PND 34-56
Experimental: (§3) Pregnant Sprague-Dawley rats (Charles River, Calco, Italy), received a single intraperitoneal injection of 500 mg/kg sodium valproate on the 12.5 day after conception, and control females were injected with physiological saline at the same time. Sodium valproate (Sigma Aldrich, Milan, IT) was dissolved in saline at a concentration of 250 mg/ml.
(§4) CBDA was dissolved in ethanol, cremophor and saline (1:1:18). Symptomatic treatment with CBDA at doses of 2 and 20 mg/kg/day i.p. was performed starting from PND 34 (early adolescence) till 56 (early adulthood), both in male and female offspring of dams injected with VPA 500 mg/kg (or vehicle) on day 12.5 after conception. At PND 56, a series of behavioural tests was performed in order to assess the effect of chronic CBDA on sociability, social novelty, short-term memory, locomotion and stereotyped/repetitive behaviours.
Locomotor activity and repetitive behaviours: Locomotor activity was recorded in an activity cage for 20 minutes with the aid of Anymaze program (Ugo Basile, Italy). In this period, repetitive behaviours (self-grooming and digging) were measured by an observer blind to the treatment group.

[2] = test system: offspring of VPA-exposed rats; experiment: Sociability and preference for social novelty, 3-chamber apparatus, rat VPA model; type: in vivo, Sprague-Dawley rats
Experimental: as §3, §4
Sociability and preference for social novelty: These behaviours were investigated in a 3-chamber apparatus which allows for the measurement of social approach and social preference. In brief, animals were placed into a novel arena (80 cm×31.5 cm) composed of three communicating chambers separated by Perspex walls with central openings allowing access to all chambers for 5 min.
Following this acclimatisation period, animals were briefly confined to the central chamber while an unfamiliar rat confined in a small wire cage was placed in one of the outer chambers. An identical empty wire cage was placed in the other chamber. […] Time spent engaging in investigatory behaviour with the rat was evaluated with the aid of Anymaze program (Ugo Basile, Italy) in order to examine social approach.
To investigate the preference for social novelty, a novel unfamiliar rat was then placed in the empty cage and the test animal was then allowed to explore the arena/chambers for a further 5 min. Time spent engaging in investigatory behaviour with the novel unfamiliar rat was evaluated with the aid of Anymaze program (Ugo Basile, Italy) in order to examine preference for social novelty.

VPA rats = experiment: Short-term memory, novel object recognition test, rat VPA model; type: in vivo, Sprague-Dawley rats; conditions: FIG. 2C
Experimental: as §3, §4
Short-term memory: The experimental apparatus used for the object recognition test was an open-field box (43×43×32 cm) made of Plexiglas, placed in a dimly illuminated room. The experiment was performed and analysed as previously described (Zamberletti et al, 2014). Animals performed each test individually.
Each animal was placed in the arena and allowed to explore two identical previously unseen objects for 5 minutes (familiarization phase). After an inter-trial interval of 3 minutes one of the two familiar objects was replaced by a novel, previously unseen object and rats were returned to the arena for the 5-minute test phase. During the test phase the time spent exploring the familiar object (Ef) and the new object (En) was videotaped and recorded separately by two observers blind to the treatment groups and the discrimination index was calculated as follows: [(En−Ef)/(En+Ef)]×100.

Ube3am-/p+ (AS) mice [3] = experiment: Tail suspension test, mouse model of Angelman syndrome; type: in vivo; conditions: CBDA 20 mg/kg i.p., vs AS vehicle, FIG. 15
Experimental: as §1, §2
Tail suspension: The tail suspension test assesses depressive-like behaviour in mice. Mice were individually suspended by the tail on a horizontal bar (50 cm from floor) using adhesive tape placed approximately 4 cm from the tip of the tail. The duration of immobility was recorded in seconds over a period of 6 minutes by a time recorder. Immobility time was defined as the absence of escape-oriented behaviour.

[4] = test system: Fmr1 KO and WT mice (PND21); experiment: Susceptibility to audiogenic seizures; type: in vivo
Experimental: This trait was evaluated in PND21 mice after acute administration of the compounds or its vehicle, 30 min before starting the procedure. To measure audiogenic seizure sensitivity mice were placed individually into a novel environment, a glass cylinder (40 cm high, 16 cm diameter) and allowed to explore for 1 min. Next, a bell (100 dB) was rung for 30 see and seizure activity scored according to the following scale: no response, 0; wild running, 1; clonic seizure, 2; tonic seizure, 3; status epilepticus/respiratory arrest/death, 4.
On postnatal day 21 (PND21) WT and Fmr1 KO mice were injected with CBDA (20 mg/kg) or vehicle, 30 min before exposure to a bell ring (100 dB). Mice exposed to this noise for 30 see ceased from their normal exploratory behaviour and reacted with gradually to wild-running, clonic seizure, tonic seizure or death. The maximum response was annotated for each mouse as detailed in Table 2 below. A score was calculated according to the severity of the symptoms as explained in the Methods section.

[5] = FXS (Fmr1 KO) mice PND21, n = 5, CBDA 20 mg/kg acute (30 min)
[6] = WT mice PND21, n = 6, CBDA 20 mg/kg acute (30 min)

Q: Which results are given for `C=C(C)[C@@H]1CCC(C)=C[C@H]1c1c(O)cc(CCCCC)c(C(=O)O)c1O` [CBDA, Cannabidiolic acid]?
A: discrimination index (Ube3am-/p+ (AS) mice [1]): increased the discrimination index; locomotor activity (VPA-exposed offspring; VPA offspring, FIG. 2B): able to normalize this; repetitive behaviours (time spent in compulsive self-grooming) (VPA-exposed offspring; VPA-exposed offspring, FIG. 2A): significantly normalize this behaviour; preference index ([2]; CBDA 20 mg/kg/day i.p. PND 34-56, VPA rats, FIG. 1C): significantly counteracted the impairment in sociability; social novelty preference ([2]; CBDA 20 mg/kg/day i.p. PND 34-56, male VPA rats, FIG. 1A): statistically significant effect in males on restoration of social novelty preference; sociability ([2]; CBDA at both doses (2 and 20 mg/kg/day i.p.) PND 34-56, VPA rats, FIG. 1B): significantly reduced the impairment in sociability; short-term memory (discrimination index) (VPA rats; CBDA 20 mg/kg/day i.p., female VPA rats): able to reverse the short-term memory deficit; short-term memory (discrimination index) (VPA rats; CBDA 2 and 20 mg/kg/day i.p., male VPA rats): completely and significantly reversed the short-term memory deficit; recognition memory per se (VPA rats; CBDA given to vehicle-treated (non VPA) rats): without affecting per se recognition memory; duration of immobility time (Ube3am-/p+ (AS) mice [3]): significantly reduced the duration of immobility time; number of mice with maximum response: Clonic seizure [4, 5]: 0; number of mice with maximum response: Death [4, 5]: 0; number of mice with maximum response: No response [4, 5]: 2; number of mice with maximum response: Tonic seizure [4, 5]: 1; number of mice with maximum response: Wild running [4, 5]: 2; seizure severity ([4]; FXS mice, CBDA 20 mg/kg, 30 min before 100 dB bell, vs vehicle): either no seizures or seizures of lower severity; number of mice with maximum response: Clonic seizure [4, 6]: 0; number of mice with maximum response: Death [4, 6]: 0; number of mice with maximum response: No response [4, 6]: 6; number of mice with maximum response: Tonic seizure [4, 6]: 0; number of mice with maximum response: Wild running [4, 6]: 0

From patent US12150927B2, “Use of cannabidiolic acid in the treatment of autism spectrum disorder and associated disorders” (GW Research Limited, priority 2016, dated 2024)
